This experiment deals with HEK293T cells carrying the ATF4 luciferase reporter. The experiment can be described thus: ATF4-Luc assay, in vitro model of Vanishing Cell White Matter Disease (VWMD). The class given is cell-based. Conditions: Homo sapiens, HEK-293T, 1 μg/mL tunicamycin, 7 hours, One Glo luminescence. The method in brief:
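Compound at 200 nM and tunicamycin at 1 μg/mL were given together for 7 h to HEK293T cells stably transduced with an ATF4 5′-UTR-driven firefly luciferase reporter. Read-out by luminescence, reported as EC50.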
As a reminder, the EC50 is the concentration giving half of the maximal effect. Regarding `O=C(COc1ccc(Cl)c(F)c1)NC12CCC(NC(=O)c3cc(C(F)F)no3)(CC1)CC2O` (centres unmarked) [Compound 632, N-{4-[2-(4-chloro-3-fluorophenoxy)acetamido]-3-hydroxybicyclo[2.2.2]octan-1-yl}-3-(difluoromethyl)-1,2-oxazole-5-carboxamide], the EC50 was less than 50 nM. The figure for `Cc1nocc1C(=O)NC12CCC(NC(=O)COc3ccc(Cl)c(F)c3)(CC1)C(O)C2` (centres unmarked) [Compound 605, N-{4-[2-(4-chloro-3-fluorophenoxy)acetamido]-3-hydroxybicyclo[2.2.2]octan-1-yl}-3-methyl-1,2-oxazole-4-carboxamide] is greater than 2000 nM; for `COc1cc(C(=O)NC23CC(NC(=O)COc4ccc(Cl)c(Cl)c4)(C2)C3)on1` [Compound 709, N-{3-[2-(3,4-dichlorophenoxy)acetamido]bicyclo[1.1.1]pentan-1-yl}-3-methoxy-1,2-oxazole-5-carboxamide] it is 50 to 250 nM; for `Cc1nc(C(=O)NC23CCC(NC(=O)COc4ccc(Cl)c(F)c4)(CC2)[C@@H](O)C3)cs1` [Compound 572, N-{(3S)-4-[2-(4-chloro-3-fluorophenoxy)acetamido]-3-hydroxybicyclo[2.2.2]octan-1-yl}-2-methyl-1,3-thiazole-4-carboxamide] it is 50 to 250 nM.

For the molecule `CN(C(=O)c1cnc(C(F)F)cn1)C12CC(NC(=O)COc3ccc(Cl)c(F)c3)(C1)C2` [Compound 352, N-{3-[2-(4-chloro-3-fluorophenoxy)acetamido]bicyclo[1.1.1]pentan-1-yl}-5-(difluoromethyl)-N-methylpyrazine-2-carboxamide], the EC50 was 50 to 250 nM.

As for `O=C(COc1ccc(Cl)c(F)c1)NC12CC(NC(=O)c3ccc(O)nc3)(C1)C2` [Compound 322, N-{3-[2-(4-chloro-3-fluorophenoxy)acetamido]bicyclo[1.1.1]pentan-1-yl}-6-hydroxypyridine-3-carboxamide], the EC50 was greater than 2000 nM. The figure for `Cc1ccc(C(=O)NC23CC(NC(=O)COc4ccc(Cl)c(F)c4)(C2)C3)nn1` [Compound 137, N-{3-[2-(4-chloro-3-fluorophenoxy)acetamido]bicyclo[1.1.1]pentan-1-yl}-6-methylpyridazine-3-carboxamide] is 1000 to 2000 nM; for `CC(C)(O)CCc1ccnc(C(=O)NC23CC(NC(=O)COc4ccc(Cl)c(Cl)c4)(C2)C3)c1` [Compound 433, N-{3-[2-(3,4-dichlorophenoxy)acetamido]bicyclo[1.1.1]pentan-1-yl}-4-(3-hydroxy-3-methylbutyl)pyridine-2-carboxamide] it is greater than 2000 nM; for `COc1ccc(C(=O)NC23CC(NC(=O)COc4ccc(Cl)c(F)c4)(C2)C3)c(F)c1` [Compound 518, N-{3-[2-(4-chloro-3-fluorophenoxy)acetamido]bicyclo[1.1.1]pentan-1-yl}-2-fluoro-4-methoxybenzamide] it is 250 to 1000 nM. Take `Cc1cc(C(=O)NC23CC(NC(=O)COc4ccc(Cl)c(F)c4)(C2)C3)no1` [Compound 273, N-{3-[2-(4-chloro-3-fluorophenoxy)acetamido]bicyclo[1.1.1]pentan-1-yl}-5-methyl-1,2-oxazole-3-carboxamide]: the EC50 was 250 to 1000 nM. The figure for `O=C(COc1ccc(Cl)c(F)c1)NC12CC(NC(=O)c3cnc(C4=CCOCC4)o3)(C1)C2` [Compound 138, N-{3-[2-(4-chloro-3-fluorophenoxy)acetamido]bicyclo[1.1.1]pentan-1-yl}-2-(3,6-dihydro-2H-pyran-4-yl)-1,3-oxazole-5-carboxamide] is 50 to 250 nM; for `O=C(COc1ccc(Cl)c(F)c1)NC12CCC(NC(=O)c3cccc(CO)n3)(CC1)CC2O` (centres unmarked) [Compound 945, N-{4-[2-(4-chloro-3-fluorophenoxy)acetamido]-3-hydroxybicyclo[2.2.2]octan-1-yl}-6-(hydroxymethyl)pyridine-2-carboxamide] it is greater than 2000 nM. The figure for `CCc1nc(C(=O)NC23CC(NC(=O)COc4ccc(Cl)c(F)c4)(C2)C3)cs1` [Compound 554, N-{3-[2-(4-chloro-3-fluorophenoxy)acetamido]bicyclo[1.1.1]pentan-1-yl}-2-ethyl-1,3-thiazole-4-carboxamide] is less than 50 nM; for `Cc1ccc(C(=O)NC23CCC(NC(=O)COc4ccc(Cl)c(F)c4)(CC2)CC3O)cn1` (centres unmarked) [Compound 228, N-{4-[2-(4-chloro-3-fluorophenoxy)acetamido]-2-hydroxybicyclo[2.2.2]octan-1-yl}-6-methylpyridine-3-carboxamide] it is greater than 2000 nM. The figure for `CC(O)c1ncc(C(=O)NC23CC(NC(=O)COc4ccc(Cl)c(F)c4)(C2)C3)s1` (centres unmarked) [Compound 476, N-{3-[2-(4-chloro-3-fluorophenoxy)acetamido]bicyclo[1.1.1]pentan-1-yl}-2-(1-hydroxyethyl)-1,3-thiazole-5-carboxamide] is 250 to 1000 nM; for `O=C(COc1ccc(Cl)c(F)c1)NC12CCC(NC(=O)c3cnc(C(F)F)cn3)(CC1)C(F)C2` (centres unmarked) [Compound 373, N-{4-[2-(4-chloro-3-fluorophenoxy)acetamido]-2-fluorobicyclo[2.2.2]octan-1-yl}-5-(difluoromethyl)pyrazine-2-carboxamide] it is 250 to 1000 nM. Turning to `Cc1ncc(C(=O)NC23CC(NC(=O)COc4ccc(Cl)c(Cl)c4)(C2)C3)o1` [Compound 675, N-{3-[2-(3,4-dichlorophenoxy)acetamido]bicyclo[1.1.1]pentan-1-yl}-2-methyl-1,3-oxazole-5-carboxamide], the EC50 fell in the range of 50 to 250 nM.

On to `O=C(COc1ccc(Cl)c(F)c1)NC12CC(NC(=O)c3cccc(F)c3F)(C1)C2` [Compound 509, N-{3-[2-(4-chloro-3-fluorophenoxy)acetamido]bicyclo[1.1.1]pentan-1-yl}-2,3-difluorobenzamide], for which the EC50 lay within 250 to 1000 nM. The figure for `O=C(COc1ccc(Cl)c(F)c1)NC12CCC(NC(=O)c3cc4ccccn4n3)(CC1)CC2O` (centres unmarked) [Compound 594, N-{4-[2-(4-chloro-3-fluorophenoxy)acetamido]-3-hydroxybicyclo[2.2.2]octan-1-yl}pyrazolo[1,5-a]pyridine-2-carboxamide] is 50 to 250 nM. For `O=C(COc1ccc(Cl)c(F)c1)NC12CC(NC(=O)c3coc(C4CC4)n3)(C1)C2` [Compound 248, N-{3-[2-(4-chloro-3-fluorophenoxy)acetamido]bicyclo[1.1.1]pentan-1-yl}-2-cyclopropyl-1,3-oxazole-4-carboxamide], the EC50 is 50 to 250 nM. The figure for `CN(C)Cc1cccc(C(=O)NC23CC(NC(=O)COc4ccc(Cl)c(F)c4)(C2)C3)c1` [Compound 553, N-{3-[2-(4-chloro-3-fluorophenoxy)acetamido]bicyclo[1.1.1]pentan-1-yl}-3-[(dimethylamino)methyl]benzamide] is greater than 2000 nM; for `Cc1cnoc1C(=O)NC12CC(NC(=O)COc3ccc(Cl)c(F)c3)(C1)C2` [Compound 367, N-{3-[2-(4-chloro-3-fluorophenoxy)acetamido]bicyclo[1.1.1]pentan-1-yl}-4-methyl-1,2-oxazole-5-carboxamide] it is greater than 2000 nM.

Turning to `Cc1cncc(C(=O)NC23CC(NC(=O)COc4ccc(Cl)c(F)c4)(C2)C3)c1` [Compound 644, N-{3-[2-(4-chloro-3-fluorophenoxy)acetamido]bicyclo[1.1.1]pentan-1-yl}-5-methylpyridine-3-carboxamide], the EC50 fell in the range of 50 to 250 nM. The figure for `O=C(COc1ccc(Cl)c(F)c1)NC12CC(NC(=O)c3coc4ccccc34)(C1)C2` [Compound 243, N-{3-[2-(4-chloro-3-fluorophenoxy)acetamido]bicyclo[1.1.1]pentan-1-yl}-1-benzofuran-3-carboxamide] is 250 to 1000 nM; for `O=C(COc1ccc2c(c1)OC(F)(F)O2)NC12CC(NC(=O)c3ccncc3)(C1)C2` [Compound 418, N-(3-{2-[(2,2-difluoro-2H-1,3-benzodioxol-5-yl)oxy]acetamido}bicyclo[1.1.1]pentan-1-yl)pyridine-4-carboxamide] it is greater than 2000 nM; for `O=C(COc1ccc(Cl)c(F)c1)NC12CC(NC(=O)c3cnc(C(F)(F)F)cn3)(C1)C2` [Compound 115, N-{3-[2-(4-chloro-3-fluorophenoxy)acetamido]bicyclo[1.1.1]pentan-1-yl}-5-(trifluoromethyl)pyrazine-2-carboxamide] it is 1000 to 2000 nM.

For the molecule `CCc1nc(C)c(C(=O)NC23CC(NC(=O)COc4ccc(Cl)c(F)c4)(C2)C3)s1` [Compound 294, N-{3-[2-(4-chloro-3-fluorophenoxy)acetamido]bicyclo[1.1.1]pentan-1-yl}-2-ethyl-4-methyl-1,3-thiazole-5-carboxamide], the EC50 was 50 to 250 nM. The figure for `Cc1nc(C(=O)NC23CCC(NC(=O)COc4ccc(Cl)c(F)c4)(CC2)[C@H](O)C3)c(C)s1` [Compound 497, N-{(3R)-4-[2-(4-chloro-3-fluorophenoxy)acetamido]-3-hydroxybicyclo[2.2.2]octan-1-yl}-2,5-dimethyl-1,3-thiazole-4-carboxamide] is 250 to 1000 nM; for `CCc1cc(C(=O)NC23CCC(NC(=O)COc4ccc(Cl)c(F)c4)(CC2)[C@@H](O)C3)on1` [Compound 618, N-{(3S)-4-[2-(4-chloro-3-fluorophenoxy)acetamido]-3-hydroxybicyclo[2.2.2]octan-1-yl}-3-ethyl-1,2-oxazole-5-carboxamide] it is less than 50 nM; for `O=C(COc1ccc(Cl)c(F)c1)NC12CCC(NC(=O)c3cc(CO)ccn3)(CC1)C[C@@H]2O` [Compound 680, N-{(3S)-4-[2-(4-chloro-3-fluorophenoxy)acetamido]-3-hydroxybicyclo[2.2.2]octan-1-yl}-4-(hydroxymethyl)pyridine-2-carboxamide] it is less than 50 nM. The figure for `O=C(COc1ccc(Cl)c(F)c1)NC12CC(NC(=O)c3cc(N4CC(O)C4)ccn3)(C1)C2` [Compound 179, N-{3-[2-(4-chloro-3-fluorophenoxy)acetamido]bicyclo[1.1.1]pentan-1-yl}-4-(3-hydroxyazetidin-1-yl)pyridine-2-carboxamide] is 250 to 1000 nM; for `Cc1cnc(C(=O)NC23CC(NC(=O)COc4ccc(C(F)(F)F)nc4)(C2)C3)cn1` [Compound 162, 5-methyl-N-[3-(2-{[6-(trifluoromethyl)pyridin-3-yl]oxy}acetamido)bicyclo[1.1.1]pentan-1-yl]pyrazine-2-carboxamide] it is greater than 2000 nM.

Values taken from US10913727B2, “Modulators of the integrated stress pathway” (Calico Life Sciences LLC, priority 2016, dated 2021).
